In ChEMBL document CHEMBL5316337, “Critical Role of Position 10 Residue in the Polymyxin Antimicrobial Activity” (J Med Chem, 2023):
Values after ≈ are worked out from the molar mass of the structure shown.

How the values were obtained:
Type in all cases: functional
Enterobacter cloacae [1] = test: Antibacterial activity against polymyxin-susceptible Enterobacter cloacae FADD1-EC001 clinical isolates assessed as reduction in bacterial growth by broth microdilution method
Acinetobacter baumannii [2] = test: Antibacterial activity against polymyxin-susceptible Acinetobacter baumannii ATCC 17978 clinical isolates assessed as reduction in bacterial growth by broth microdilution method
Klebsiella pneumoniae [3] = test: Antibacterial activity against Carbapenem-resistant Klebsiella pneumoniae FADD1-KP022 clinical isolates assessed as reduction in bacterial growth by broth microdilution method
Acinetobacter baumannii [4] = test: Antibacterial activity against Carbapenem-resistant Acinetobacter baumannii FADD1-AB030 clinical isolates assessed as reduction in bacterial growth by broth microdilution method
Acinetobacter baumannii [5] = test: Antibacterial activity against polymyxin-susceptible Acinetobacter baumannii ATCC 19606 clinical isolates assessed as reduction in bacterial growth by broth microdilution method
Pseudomonas aeruginosa [6] = test: Antibacterial activity against polymyxin-susceptible Pseudomonas aeruginosa FADD1-PA025 clinical isolates assessed as reduction in bacterial growth by broth microdilution method
Enterobacter cloacae [7] = test: Antibacterial activity against polymyxin-susceptible Enterobacter cloacae FADD1-EC006 clinical isolates assessed as reduction in bacterial growth by broth microdilution method
Pseudomonas aeruginosa [8] = test: Antibacterial activity against polymyxin-susceptible Pseudomonas aeruginosa FADD1-PA038 clinical isolates assessed as reduction in bacterial growth by broth microdilution method
Enterobacter cloacae [9] = test: Antibacterial activity against polymyxin-susceptible Enterobacter cloacae FADD1-EC003 clinical isolates assessed as reduction in bacterial growth by broth microdilution method
Pseudomonas aeruginosa [10] = test: Antibacterial activity against Carbapenem-resistant Pseudomonas aeruginosa FADD1-PA001 clinical isolates assessed as reduction in bacterial growth by broth microdilution method
Acinetobacter baumannii [11] = test: Antibacterial activity against Carbapenem-resistant Acinetobacter baumannii FADD1-AB034 clinical isolates assessed as reduction in bacterial growth by broth microdilution method
Klebsiella pneumoniae [12] = test: Antibacterial activity against polymyxin-susceptible Klebsiella pneumoniae ATCC 700721 clinical isolates assessed as reduction in bacterial growth by broth microdilution method
Pseudomonas aeruginosa [13] = test: Antibacterial activity against Carbapenem-resistant Pseudomonas aeruginosa FADD1-PA022 clinical isolates assessed as reduction in bacterial growth by broth microdilution method
Klebsiella pneumoniae [14] = test: Antibacterial activity against Carbapenem-resistant Klebsiella pneumoniae BM1 clinical isolates assessed as reduction in bacterial growth by broth microdilution method
Klebsiella pneumoniae [15] = test: Antibacterial activity against Carbapenem-resistant Klebsiella pneumoniae FADD1-KP032 clinical isolates assessed as reduction in bacterial growth by broth microdilution method
Pseudomonas aeruginosa [16] = test: Antibacterial activity against polymyxin-susceptible Pseudomonas aeruginosa ATCC 27853 clinical isolates assessed as reduction in bacterial growth by broth microdilution method
Klebsiella pneumoniae [17] = test: Antibacterial activity against Carbapenem-resistant Klebsiella pneumoniae FADD1-KP065 clinical isolates assessed as reduction in bacterial growth by broth microdilution method

Row | SMILES | MIC (Enterobacter cloacae [1]) [µg/mL] | MIC (Acinetobacter baumannii [2]) [µg/mL] | MIC (Klebsiella pneumoniae [3]) [µg/mL] | MIC (Acinetobacter baumannii [4]) [µg/mL] | MIC (Acinetobacter baumannii [5]) [µg/mL] | MIC (Pseudomonas aeruginosa [6]) [µg/mL] | MIC (Enterobacter cloacae [7]) [µg/mL] | MIC (Pseudomonas aeruginosa [8]) [µg/mL] | MIC (Enterobacter cloacae [9]) [µg/mL] | MIC (Pseudomonas aeruginosa [10]) [µg/mL] | MIC (Acinetobacter baumannii [11]) [µg/mL] | MIC (Klebsiella pneumoniae [12]) [µg/mL] | MIC (Pseudomonas aeruginosa [13]) [µg/mL] | MIC (Klebsiella pneumoniae [14]) [µg/mL] | MIC (Klebsiella pneumoniae [15]) [µg/mL] | MIC (Pseudomonas aeruginosa [16]) [µg/mL] | MIC (Klebsiella pneumoniae [17]) [µg/mL]
1 | CC[C@H](C)CCCCC(=O)N[C@@H](CCN)C(=O)N[C@H](C(=O)N[C@@H](CCN)C(=O)N[C@H]1CCNC(=O)[C@H](CS)NC(=O)[C@H](CCN)NC(=O)[C@H](CCN)NC(=O)[C@H](CC(C)C)NC(=O)[C@@H](Cc2ccccc2)NC(=O)[C@H](CCN)NC1=O)[C@@H](C)O | 16 (≈ 13.3 µM) | 16 (≈ 13.3 µM) | 4 (≈ 3.32 µM) | 32 (≈ 26.5 µM) | 16 (≈ 13.3 µM) | 8 (≈ 6.64 µM) | 16 (≈ 13.3 µM) | 8 (≈ 6.64 µM) | 16 (≈ 13.3 µM) | 8 (≈ 6.64 µM) | 16 (≈ 13.3 µM) | 16 (≈ 13.3 µM) | 4 (≈ 3.32 µM) | 16 (≈ 13.3 µM) | 16 (≈ 13.3 µM) | 4 (≈ 3.32 µM) | 4 (≈ 3.32 µM)
2 | CC[C@H](C)CCCCC(=O)N[C@@H](CCN)C(=O)N[C@H](C(=O)N[C@@H](CCN)C(=O)N[C@H]1CCNC(=O)[C@H](CCCNC(=N)N)NC(=O)[C@H](CCN)NC(=O)[C@H](CCN)NC(=O)[C@H](CC(C)C)NC(=O)[C@@H](Cc2ccccc2)NC(=O)[C@H](CCN)NC1=O)[C@@H](C)O | 32 (≈ 25.4 µM) | 4 (≈ 3.18 µM) | 2 (≈ 1.59 µM) | 8 (≈ 6.36 µM) | 8 (≈ 6.36 µM) | 8 (≈ 6.36 µM) | 32 (≈ 25.4 µM) | > 32 | 16 (≈ 12.7 µM) | > 32 | 4 (≈ 3.18 µM) | 32 (≈ 25.4 µM) | 1 (≈ 0.795 µM) | > 32 | 32 (≈ 25.4 µM) | 4 (≈ 3.18 µM) | 4 (≈ 3.18 µM)
3 | CC[C@H](C)CCCCC(=O)N[C@@H](CCN)C(=O)N[C@H](C(=O)N[C@@H](CCN)C(=O)N[C@H]1CCNC(=O)[C@H](C(C)N=[N+]=[N-])NC(=O)[C@H](CCN)NC(=O)[C@H](CCN)NC(=O)[C@H](CC(C)C)NC(=O)[C@@H](Cc2ccccc2)NC(=O)[C@H](CCN)NC1=O)[C@@H](C)O (some centres not stated) | 8 (≈ 6.51 µM) | 2 (≈ 1.63 µM) | 1 (≈ 0.814 µM) | 0.5 (≈ 0.407 µM) | 2 (≈ 1.63 µM) | 1 (≈ 0.814 µM) | 32 (≈ 26 µM) | 4 (≈ 3.26 µM) | 4 (≈ 3.26 µM) | 1 (≈ 0.814 µM) | 2 (≈ 1.63 µM) | 4 (≈ 3.26 µM) | 1 (≈ 0.814 µM) | 2 (≈ 1.63 µM) | 2 (≈ 1.63 µM) | 1 (≈ 0.814 µM) | 1 (≈ 0.814 µM)
4 | CC[C@H](C)CCCCC(=O)N[C@@H](CCN)C(=O)N[C@H](C(=O)N[C@@H](CCN)C(=O)N[C@H]1CCNC(=O)[C@H](CCC(=O)O)NC(=O)[C@H](CCN)NC(=O)[C@H](CCN)NC(=O)[C@H](CC(C)C)NC(=O)[C@@H](Cc2ccccc2)NC(=O)[C@H](CCN)NC1=O)[C@@H](C)O | > 32 | > 32 | 32 (≈ 26 µM) | > 32 | > 32 | > 32 | > 32 | > 32 | > 32 | > 32 | > 32 | > 32 | > 32 | > 32 | > 32 | > 32 | > 32
5 | CC[C@H](C)CCCCC(=O)N[C@@H](CCN)C(=O)N[C@H](C(=O)N[C@@H](CCN)C(=O)N[C@H]1CCNC(=O)[C@H](CCN)NC(=O)[C@H](CCN)NC(=O)[C@H](CCN)NC(=O)[C@H](CC(C)C)NC(=O)[C@@H](Cc2ccccc2)NC(=O)[C@H](CCN)NC1=O)[C@@H](C)O | > 32 | 16 (≈ 13.3 µM) | 2 (≈ 1.66 µM) | 8 (≈ 6.65 µM) | 16 (≈ 13.3 µM) | > 32 | > 32 | > 32 | > 32 | > 32 | 16 (≈ 13.3 µM) | > 32 | > 32 | > 32 | 32 (≈ 26.6 µM) | > 32 | 4 (≈ 3.33 µM)
6 | CC[C@H](C)CCCCC(=O)N[C@@H](CCN)C(=O)N[C@H](C(=O)N[C@@H](CCN)C(=O)N[C@H]1CCNC(=O)[C@H](CC(N)=O)NC(=O)[C@H](CCN)NC(=O)[C@H](CCN)NC(=O)[C@H](CC(C)C)NC(=O)[C@@H](Cc2ccccc2)NC(=O)[C@H](CCN)NC1=O)[C@@H](C)O | > 32 | 16 (≈ 13.2 µM) | 8 (≈ 6.58 µM) | > 32 | > 32 | 4 (≈ 3.29 µM) | > 32 | > 32 | 32 (≈ 26.3 µM) | > 32 | > 32 | > 32 | 1 (≈ 0.822 µM) | > 32 | > 32 | 32 (≈ 26.3 µM) | 8 (≈ 6.58 µM)
